Results from patent US8486950B2, “Janus kinase inhibitor compounds and methods” (F. Hoffmann-La Roche AG, priority 2009, dated 2013).

The compounds below were run against T1, TYK2 kinase domain (Homo sapiens, UniProt P29597) (assay: TYK2 inhibition assay (Caliper LabChip, isolated kinase domain)). Settings: not given.
T1 construct: made in house; host or cells: SF9 insect cells (recombinant baculovirus)
T1 sequence (P29597 873-1187): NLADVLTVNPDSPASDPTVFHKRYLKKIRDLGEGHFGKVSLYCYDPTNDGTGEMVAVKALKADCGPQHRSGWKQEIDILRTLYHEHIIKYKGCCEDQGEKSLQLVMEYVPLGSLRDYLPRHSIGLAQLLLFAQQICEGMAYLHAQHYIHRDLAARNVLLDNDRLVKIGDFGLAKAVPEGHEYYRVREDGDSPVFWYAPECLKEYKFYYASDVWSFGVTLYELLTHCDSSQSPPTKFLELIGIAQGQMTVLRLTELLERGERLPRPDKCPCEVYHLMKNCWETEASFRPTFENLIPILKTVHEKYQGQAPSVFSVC
Assay type: biochemical
From the text: The catalytically active kinase domain of human JAK1, JAK2, JAK3 or TYK2 was purified from extracts of SF9 insect cells infected with a recombinant baculovirus expression vector encoding the human JAK1, JAK2, JAK3 or TYK2 kinase domains (JAK1 amino acid residues N852-D1154 according to the numbering of GenBank sequence accession number P23458, JAK2 amino acid residues D812-G1132 according to the numbering of GenBank sequence accession number NP_004963.1; JAK3 amino acid residues S783-S1124 according to the numbering of GenBank sequence accession number P52333, and TYK2 amino acid residues N873-C1187 according to the numbering of GenBank sequence accession number P29597). The activity of the JAK1, JAK2, JAK3 or TYK2 kinase domains can be measured by a number of direct and indirect methods, including quantification of phosphorylation of peptide substrates derived from the human JAK3 protein (Saltzman et al., Biochem. Biophys. Res. Commun. 246:627-633 (2004)). The activity of the JAK1, JAK2, JAK3 or TYK2 kinase domains was measured in vitro by monitoring phosphorylation of JAK3 derived peptides using the Caliper LabChip technology (see Examples).
The activity of the isolated JAK1, JAK2 or TYK2 kinase domain was measured by monitoring phosphorylation of a peptide derived from JAK3 (SEQ ID NO:1 […] fluorescently labeled on the N-terminus with 5-carboxyfluorescein using the Caliper LabChip technology (Caliper Life Sciences, Hopkinton, Mass.). […] Reactions were incubated at 22° C. in 384-well polypropylene microtiter plates for 30 minutes and then stopped by addition of 25 uL of an EDTA containing solution (100 mM Hepes pH 7.2, 0.015% Brij-35, 150 mM EDTA), resulting in a final EDTA concentration of 50 mM. After termination of the kinase reaction, the proportion of phosphorylated product was determined as a fraction of total peptide substrate using the Caliper LabChip 3000 according to the manufacturer's specifications. Ki values were then determined using the Morrison tight binding model. Morrison, J. F., Biochim. Biophys. Acta. 185:269-296 (1969); William, J. W. and Morrison, J. F., Meth. Enzymol., 63:437-467 (1979).

Ki | SMILES
~52 nM | O=C(Nc1ccnc(NC(=O)[C@H]2C[C@@H]2c2nnn[nH]2)c1)c1c(Cl)cccc1Cl (relative stereo) [Example 320, N-(2-(trans-2-(1H-tetrazol-5-yl)cyclopropanecarboxamido)pyridin-4-yl)-2,6-dichlorobenzamide]
~2 nM | N#Cc1cc(Cl)c(C(=O)Nc2ccnc(NC(=O)C3CC3)c2)c(Cl)c1 [Example 256, 2,6-dichloro-4-cyano-N-(2-(cyclopropanecarboxamido)pyridin-4-yl)benzamide]

Same assay, conditions: isolated TYK2 kinase domain, 25 uM ATP; values given as 'about'; read-out: Ki values for TYK2 inhibition

SMILES | Ki
N#Cc1cc(Cl)c(C(=O)Nc2ccnc(N)c2)c(Cl)c1 [Example 281, N-(2-aminopyridin-4-yl)-2,6-dichloro-4-cyanobenzamide] | ~93 nM
CN(C)C(=O)c1cc(Cl)c(C(=O)Nc2ccnc(NC(=O)C3CC3)c2)c(Cl)c1 [Example 260, 2,6-dichloro-N^1-(2-(cyclopropanecarboxamido)pyridin-4-yl)-N^4,N^4-dimethylterephthalamide] | ~27 nM
NC[C@H]1C[C@H]1C(=O)Nc1cc(NC(=O)c2c(F)cccc2Cl)ccn1 (relative stereo) [Example 608, cis-N-(2-(2-(aminomethyl)cyclopropanecarboxamido)pyridin-4-yl)-2-chloro-6-fluorobenzamide] | ~140 nM
Nc1cc(NC(=O)c2c(Cl)cccc2Cl)ccn1 [Example 2, N-(2-aminopyridin-4-yl)-2,6-dichlorobenzamide] | ~850 nM
Cc1cc(Nc2nccc(NC(=O)c3c(Cl)cc(C#N)cc3Cl)c2[N+](=O)[O-])nc(C)n1 [Example 238, 2,6-dichloro-4-cyano-N-(2-(2,6-dimethylpyrimidin-4-ylamino)-3-nitropyridin-4-yl)benzamide] | ~450 nM
O=C(Nc1ccc(NC(=O)C2CC2)nc1)c1c(Cl)cccc1Cl [2,6-dichloro-N-(6-(cyclopropanecarboxamido)-pyridin-3-yl)benzamide, reference compound] | > 3500 nM
Cc1ccc(Cl)c(C(=O)Nc2ccncc2)c1F [Example 17, 6-chloro-2-fluoro-3-methyl-N-(pyridin-4-yl)benzamide] | ~360 nM
O=C(Nc1cc(NC(=O)C2CC2)ncc1F)c1c(Cl)cccc1Cl (single isomer, unassigned) [Example 264, 2,6-dichloro-N-(5-fluoro-2-cyclopropanecarboxamidopyridin-4-yl)benzamide] | ~10 nM
O=C(Nc1ccncc1)c1c(Cl)cc(-c2cc[nH]n2)cc1Cl [Example 11, 2,6-dichloro-4-(1H-pyrazol-3-yl)-N-(pyridin-4-yl)benzamide] | ~650 nM
O=C(Nc1ccncn1)c1c(Cl)cccc1Cl [Example 3, 2,6-dichloro-N-(pyrimidin-4-yl)benzamide] | ~720 nM
O=C(Nc1ccnc(Nc2nccs2)c1)c1c(Cl)cccc1Cl [Example 4, 2,6-dichloro-N-(2-(thiazol-2-ylamino)pyridin-4-yl)benzamide] | ~380 nM
O=C(Nc1ccnc(NC(=O)C2CC2)c1F)c1c(Cl)cccc1Cl (single isomer, unassigned) [Example 263, 2,6-dichloro-N-(3-fluoro-2-cyclopropanecarboxamidopyridin-4-yl)benzamide] | ~24 nM
O=C(Nc1ccncc1)c1ccccc1Br [Example 271, 2-bromo-N-(pyridine-4-yl)benzamide] | ~810 nM
CCc1cc(Nc2cc(NC(=O)c3c(Cl)cccc3Cl)ccn2)nc(N2CCC(F)(F)CC2)n1 [Example 572, 2,6-dichloro-N-(2-(2-(4,4-difluoropiperidin-1-yl)-6-ethylpyrimidin-4-ylamino)pyridin-4-yl)benzamide] | ~80 nM
O=C(Nc1ccncc1)c1c(Cl)cc(CO)cc1Cl [Example 76, 2,6-dichloro-4-(hydroxymethyl)-N-(pyridin-4-yl)benzamide] | ~220 nM
O=C(Nc1cc(NC(=O)c2c(Cl)cccc2Cl)ccn1)Oc1ccccc1 [Example 350, phenyl 4-(2,6-dichlorobenzamido)pyridin-2-ylcarbamate] | ~62 nM
O=C(Nc1ccnc(NC2CC2)n1)c1c(Cl)cccc1Cl [Example 156, 2,6-dichloro-N-(2-(cyclopropylamino)-pyrimidin-4-yl)benzamide] | ~990 nM
COCCOc1ccc(Nc2cc(NC(=O)c3c(Cl)cccc3Cl)ccn2)cc1C(F)(F)F [Example 115, 2,6-dichloro-N-(2-(4-(2-methoxyethoxy)-3-(trifluoromethyl)phenyl-amino)pyridin-4-yl)benzamide] | ~570 nM
O=C(Nc1ccncc1F)c1c(Cl)cccc1Cl [Example 272, 2,6-dichloro-N-(3-fluoropyridin-4-yl)benzamide] | ~190 nM

Continued, values first:

Ki | SMILES
~8 nM | O=C(Nc1ccnc(NC(=O)[C@H]2C[C@H]2F)c1)c1c(Cl)cc(CO)cc1Cl (relative stereo) [Example 315, 2,6-dichloro-N-(2-(cis-2-fluorocyclopropanecarboxamido)pyridin-4-yl)-4-(hydroxymethyl)benzamide]
~5 nM | O=C(Nc1ccnc(NC(=O)C2CC2)c1)c1c(Cl)cc(CO)cc1Cl [Example 178, 2,6-dichloro-N-(2-(cyclopropanecarboxamido)-pyridin-4-yl)-4-(hydroxymethyl)benzamide]
~3.6 nM | Cc1cc(Nc2cc(NC(=O)c3c(Cl)cc(CNCC4CC4)cc3Cl)ccn2)nc(N2CCOCC2)n1 [Example 406, 2,6-dichloro-4-((cyclopropylmethylamino)-methyl)-N-(2-(6-methyl-2-morpholinopyrimidin-4-ylamino)pyridin-4-yl)benzamide]
~3.5 nM | Cc1cc(Nc2cc(NC(=O)c3c(Cl)cc(Cl)cc3Cl)ccn2)nc(N2CCOCC2)n1 [Example 380, 2,4,6-trichloro-N-(2-(6-methyl-2-morpholinopyrimidin-4-ylamino)pyridin-4-yl)benzamide]
~3.3 nM | CNc1nc(Nc2cc(NC(=O)c3c(Cl)cccc3Cl)ccn2)cc(C(C)C)n1 [Example 551, 2,6-dichloro-N-(2-(6-isopropyl-2-(methylamino)pyrimidin-4-ylamino)pyridin-4-yl)benzamide]
~1.8 nM | CCc1cc(Nc2cc(NC(=O)c3c(Cl)cccc3Cl)ccn2)nc(N2CCNCC2)n1 [Example 534, 2,6-dichloro-N-(2-(6-ethyl-2-(piperazin-1-yl)pyrimidin-4-ylamino)pyridin-4-yl)benzamide]
~1.5 nM | Cc1cc(Nc2cc(NC(=O)c3c(Cl)cccc3Cl)ccn2)nc(N)n1 [Example 495, N-(2-(2-amino-6-methylpyrimidin-4-ylamino)pyridin-4-yl)-2,6-dichlorobenzamide]
~0.6 nM | Cc1cc(Nc2cc(NC(=O)c3c(Cl)cc(CO)cc3Cl)ccn2)nc(NCCO)n1 [Example 416, 2,6-dichloro-N-(2-(2-(2-hydroxyethylamino)-6-methylpyrimidin-4-ylamino)pyridin-4-yl)-4-(hydroxymethyl)-benzamide]
~0.6 nM | CCc1cc(Nc2cc(NC(=O)c3c(Cl)cccc3Cl)ccn2)nc(N(CCO)CCO)n1 [Example 579, N-(2-(2-(bis(2-hydroxyethyl)amino)-6-ethylpyrimidin-4-ylamino)pyridin-4-yl)-2,6-dichlorobenzamide]
~0.5 nM | Cc1cc(Nc2cc(NC(=O)c3c(Cl)cc(C#N)cc3Cl)ccn2)nc(N(CCO)CCO)n1 [Example 415, N-(2-(2-(bis(2-hydroxyethyl)amino)-6-methylpyrimidin-4-ylamino)pyridin-4-yl)-2,6-dichloro-4-cyanobenzamide]

Same assay, conditions: measured at 10 μM concentration of compound

inhibition at 10 µM | SMILES
~5.7% | O=C(Nc1ccc(NC(=O)C2CC2)nc1)c1c(Cl)cccc1Cl [2,6-dichloro-N-(6-(cyclopropanecarboxamido)-pyridin-3-yl)benzamide, reference compound]
